# In PubChem BioAssay AID1259407 (Chemical Carcinogenesis Research Information System (CCRIS), 2018):
# Activity calls are given as the source filed them. No rule for the calls is given here.
# Tested on: CCRIS mutagenicity, Ames/micronucleus/aberration tests
# Test: CCRIS mutagenicity studies
# [1] = Test System: AMES SALMONELLA TYPHIMURIUM, Strain/Indicator: TA97, Metabolic Activation: NONE, Method: PREINCUBATION
# [2] = Test System: AMES SALMONELLA TYPHIMURIUM, Strain/Indicator: TA98, Metabolic Activation: NONE, Method: PREINCUBATION
# [3] = Test System: AMES SALMONELLA TYPHIMURIUM, Strain/Indicator: TA100, Metabolic Activation: NONE, Method: PREINCUBATION
# [4] = Test System: AMES SALMONELLA TYPHIMURIUM, Strain/Indicator: TA1535, Metabolic Activation: HAMSTER, LIVER, S-9, AROCLOR 1254 (10 OR 30%), Method: PREINCUBATION
# [5] = Test System: AMES SALMONELLA TYPHIMURIUM, Strain/Indicator: TA1535, Metabolic Activation: NONE, Method: PREINCUBATION
# [6] = Test System: AMES SALMONELLA TYPHIMURIUM, Strain/Indicator: TA1535, Metabolic Activation: RAT, LIVER, S-9, AROCLOR 1254 (10 OR 30%), Method: PREINCUBATION
# [7] = Test System: AMES SALMONELLA TYPHIMURIUM, Strain/Indicator: TA100, Metabolic Activation: NONE, Method: STANDARD PLATE
# [8] = Test System: AMES SALMONELLA TYPHIMURIUM, Strain/Indicator: TA100, Metabolic Activation: RAT, LIVER, S-9, AROCLOR 1254, Method: STANDARD PLATE
smiles,measurement,setting,value
Nc1ccc(S(=O)(=O)O)cc1,mutagenic call,"Test System: AMES SALMONELLA TYPHIMURIUM, Strain/Indicator: TA97, Metabolic Activation: HAMSTER, LIVER, S-9, AROCLOR 1254 (10 OR 30%), Method: PREINCUBATION",inactive; negative
same,mutagenic call,[1],inactive; negative
same,mutagenic call,"Test System: AMES SALMONELLA TYPHIMURIUM, Strain/Indicator: TA97, Metabolic Activation: RAT, LIVER, S-9, AROCLOR 1254 (10 OR 30%), Method: PREINCUBATION",inactive; negative
same,mutagenic call,"Test System: AMES SALMONELLA TYPHIMURIUM, Strain/Indicator: TA98, Metabolic Activation: HAMSTER, LIVER, S-9, AROCLOR 1254 (10 OR 30%), Method: PREINCUBATION",inactive; negative
same,mutagenic call,[2],inactive; negative
same,mutagenic call,"Test System: AMES SALMONELLA TYPHIMURIUM, Strain/Indicator: TA98, Metabolic Activation: RAT, LIVER, S-9, AROCLOR 1254 (10 OR 30%), Method: PREINCUBATION",inactive; negative
same,mutagenic call,"Test System: AMES SALMONELLA TYPHIMURIUM, Strain/Indicator: TA98, Metabolic Activation: RAT, LIVER, S-9, PHENOBARBITAL, Method: PREINCUBATION",inactive; negative
same,mutagenic call,"Test System: AMES SALMONELLA TYPHIMURIUM, Strain/Indicator: TA100, Metabolic Activation: HAMSTER, LIVER, S-9, AROCLOR 1254 (10 OR 30%), Method: PREINCUBATION",inactive; negative
same,mutagenic call,[3],inactive; negative
same,mutagenic call,"Test System: AMES SALMONELLA TYPHIMURIUM, Strain/Indicator: TA100, Metabolic Activation: RAT, LIVER, S-9, AROCLOR 1254 (10 OR 30%), Method: PREINCUBATION",inactive; negative
same,mutagenic call,"Test System: AMES SALMONELLA TYPHIMURIUM, Strain/Indicator: TA100, Metabolic Activation: RAT, LIVER, S-9, PHENOBARBITAL, Method: PREINCUBATION",inactive; negative
same,mutagenic call,[4],inactive; negative
same,mutagenic call,[5],inactive; negative
same,mutagenic call,[6],inactive; negative
same,mutagenic call,"Test System: Ames Salmonella typhimurium, Strain/Indicator: TA102, Metabolic Activation: None, Method: Preincubation",inactive; negative
same,mutagenic call,"Test System: Ames Salmonella typhimurium, Strain/Indicator: TA102, Metabolic Activation: Rat, Liver, S9, Aroclor 1254, Method: Preincubation",inactive; negative
same,mutagenic call,"Test System: Ames Salmonella typhimurium, Strain/Indicator: TA104, Metabolic Activation: None, Method: Preincubation",inactive; negative
same,mutagenic call,"Test System: Ames Salmonella typhimurium, Strain/Indicator: TA104, Metabolic Activation: Rat, Liver, S9, Aroclor 1254, Method: Preincubation",inactive; negative
CC(=O)c1ccc[nH]1,mutagenic call,[7],inactive; negative
same,mutagenic call,[8],inactive; negative
O=C(O)CNCP(=O)(O)O,mutagenic call,"End Point: IN VITRO MICRONUCLEUS, Test System: BOVINE LYMPHOCYTES, Metabolic Activation: NONE",inactive; negative
same,mutagenic call,"End Point: IN VIVO CHROMOSOMAL ABERRATIONS, Test System: BONE MARROW ERYTHROCYTES, Species: RABBIT, Strain/Sex: NEW ZEALAND/MALE, Route: DRINKING WATER",active; positive (structural changes and ploidy)
same,mutagenic call,"End Point: IN VIVO MICRONUCLEUS, Test System: BONE MARROW POLYCHROMATIC ERYTHROCYTES, Species: MOUSE, Strain/Sex: SWISS/MALE, FEMALE, Route: IP 2X IN AQUEOUS SUSPENSION WITHIN 24 HR",inactive; negative
same,mutagenic call,"End Point: In vitro chromosomal aberrations, Test System: Bovine peripheral lymphocytes, Metabolic Activation: None",inactive; negative
same,mutagenic call,"End Point: In vivo micronucleus, Test System: Bone marrow erythrocytes, Species: Mouse, Strain/Sex: Balb C/Male, female, Route: Intraperitoneal injection",active; positive (highest dose only)
same,mutagenic call,"Test System: AMES SALMONELLA TYPHIMURIUM, Strain/Indicator: TA97, Metabolic Activation: HAMSTER, LIVER, S-9, AROCLOR 1254 (10%), Method: PREINCUBATION",inactive; negative
same,mutagenic call,"Test System: AMES SALMONELLA TYPHIMURIUM, Strain/Indicator: TA97, Metabolic Activation: HAMSTER, LIVER, S-9, AROCLOR 1254 (30%), Method: PREINCUBATION",inactive; negative
same,mutagenic call,[1],inactive; negative
same,mutagenic call,"Test System: AMES SALMONELLA TYPHIMURIUM, Strain/Indicator: TA97, Metabolic Activation: RAT, LIVER, S-9, AROCLOR 1254 (10%), Method: PREINCUBATION",inactive; negative
same,mutagenic call,"Test System: AMES SALMONELLA TYPHIMURIUM, Strain/Indicator: TA97, Metabolic Activation: RAT, LIVER, S-9, AROCLOR 1254 (30%), Method: PREINCUBATION",inactive; negative
same,mutagenic call,"Test System: AMES SALMONELLA TYPHIMURIUM, Strain/Indicator: TA98, Metabolic Activation: HAMSTER, LIVER, S-9, AROCLOR 1254 (10%), Method: PREINCUBATION",inactive; negative
same,mutagenic call,"Test System: AMES SALMONELLA TYPHIMURIUM, Strain/Indicator: TA98, Metabolic Activation: HAMSTER, LIVER, S-9, AROCLOR 1254 (30%), Method: PREINCUBATION",inactive; negative
same,mutagenic call,[2],inactive; negative
same,mutagenic call,"Test System: AMES SALMONELLA TYPHIMURIUM, Strain/Indicator: TA98, Metabolic Activation: NONE, Method: STANDARD PLATE",inactive; negative
same,mutagenic call,"Test System: AMES SALMONELLA TYPHIMURIUM, Strain/Indicator: TA98, Metabolic Activation: RAT, LIVER, S-9, AROCLOR 1254 (10%), Method: PREINCUBATION",inactive; negative
same,mutagenic call,"Test System: AMES SALMONELLA TYPHIMURIUM, Strain/Indicator: TA98, Metabolic Activation: RAT, LIVER, S-9, AROCLOR 1254 (30%), Method: PREINCUBATION",inactive; negative
same,mutagenic call,"Test System: AMES SALMONELLA TYPHIMURIUM, Strain/Indicator: TA98, Metabolic Activation: RAT, LIVER, S-9, AROCLOR 1254, Method: STANDARD PLATE",inactive; negative
same,mutagenic call,"Test System: AMES SALMONELLA TYPHIMURIUM, Strain/Indicator: TA98, Metabolic Activation: S-9, AROCLOR 1254, Method: STANDARD PLATE",inactive; negative
same,mutagenic call,"Test System: AMES SALMONELLA TYPHIMURIUM, Strain/Indicator: TA100, Metabolic Activation: HAMSTER, LIVER, S-9, AROCLOR 1254 (10%), Method: PREINCUBATION",inactive; negative
same,mutagenic call,"Test System: AMES SALMONELLA TYPHIMURIUM, Strain/Indicator: TA100, Metabolic Activation: HAMSTER, LIVER, S-9, AROCLOR 1254 (30%), Method: PREINCUBATION",inactive; negative
same,mutagenic call,[3],inactive; negative
same,mutagenic call,[7],inactive; negative
same,mutagenic call,"Test System: AMES SALMONELLA TYPHIMURIUM, Strain/Indicator: TA100, Metabolic Activation: RAT, LIVER, S-9, AROCLOR 1254 (10%), Method: PREINCUBATION",inactive; negative
same,mutagenic call,"Test System: AMES SALMONELLA TYPHIMURIUM, Strain/Indicator: TA100, Metabolic Activation: RAT, LIVER, S-9, AROCLOR 1254 (30%), Method: PREINCUBATION",inactive; negative
same,mutagenic call,[8],inactive; negative
same,mutagenic call,"Test System: AMES SALMONELLA TYPHIMURIUM, Strain/Indicator: TA100, Metabolic Activation: S-9, AROCLOR 1254, Method: STANDARD PLATE",active; positive
same,mutagenic call,[4],inactive; negative
same,mutagenic call,[5],inactive; negative
same,mutagenic call,"Test System: AMES SALMONELLA TYPHIMURIUM, Strain/Indicator: TA1535, Metabolic Activation: NONE, Method: STANDARD PLATE",inactive; negative
same,mutagenic call,[6],inactive; negative
same,mutagenic call,"Test System: AMES SALMONELLA TYPHIMURIUM, Strain/Indicator: TA1535, Metabolic Activation: RAT, LIVER, S-9, AROCLOR 1254, Method: STANDARD PLATE",inactive; negative
same,mutagenic call,"Test System: AMES SALMONELLA TYPHIMURIUM, Strain/Indicator: TA1537, Metabolic Activation: NONE, Method: STANDARD PLATE",inactive; negative
same,mutagenic call,"Test System: AMES SALMONELLA TYPHIMURIUM, Strain/Indicator: TA1537, Metabolic Activation: RAT, LIVER, S-9, AROCLOR 1254, Method: STANDARD PLATE",inactive; negative
same,mutagenic call,"Test System: AMES SALMONELLA TYPHIMURIUM, Strain/Indicator: TA1538, Metabolic Activation: NONE, Method: STANDARD PLATE",inactive; negative
same,mutagenic call,"Test System: AMES SALMONELLA TYPHIMURIUM, Strain/Indicator: TA1538, Metabolic Activation: RAT, LIVER, S-9, AROCLOR 1254, Method: STANDARD PLATE",inactive; negative
same,mutagenic call,"Test System: CHO/HGPRT, Strain/Indicator: CHO-K1-BH4, Metabolic Activation: NONE, Method: PREINCUBATION",inactive; negative
same,mutagenic call,"Test System: CHO/HGPRT, Strain/Indicator: CHO-K1-BH4, Metabolic Activation: RAT, LIVER, S-9, AROCLOR 1254, Method: PREINCUBATION",inactive; negative
same,mutagenic call,"Test System: E. COLI, Strain/Indicator: WP2, Metabolic Activation: NONE, Method: STANDARD PLATE",inactive; negative
same,mutagenic call,"Test System: E. COLI, Strain/Indicator: WP2, Metabolic Activation: RAT, LIVER, S-9, AROCLOR 1254, Method: STANDARD PLATE",inactive; negative
